{
  "source": "patent US20090133166A1",
  "about": "“Methods for Improving Flowering Characteristics Using Methyl Dihydrojasmonate” (NEW BIOLOGY, INC., priority 2007, published 2009)",
  "key": {"[1]": {"system": "field grown ‘Julia Child’ roses", "experiment": "Vase life / bloom stage of cut field grown roses after pre-harvest foliar treatment", "assay_type": "in vivo", "design": "key to Bloom Stage Day 1 / Bloom Stage Day 3: a: Green Bud; b: Full Bud; c: Flower in early bloom stage; d: Flower in fully open stage; Flower in late bloom stage; Fully wilted flower; Flower drooped before fully opening", "method": "Foliage of field grown ‘Julia Child’ roses were sprayed to the point of drip 24 hours before harvesting with an aqueous solution comprising 5.0 mM MDHJ, 0.125% Triton® X-100, and 0.5% canola oil. On average, about 100 ml of the formulation was applied per plant, comprising an approximate volume of 130 μl (or 500 μM) MDHJ. Stems of flowers in the bud to early-bloom stage were cut in the field. Stems received a fresh cut while submerged under water before transferring to a water-filled vase. The bloom stage of 4-5 flowers was analyzed on day 1 and day 3, as compared with untreated roses that were otherwise similarly handled. FIG. 1 illustrates the full vases of flowers for the treated and untreated roses on day 1 and day 3, respectively. FIG. 2 illustrates individual roses on day 1 and day 3."}, "Parade Roses®": {"system": "Parade Roses®", "experiment": "Flower development on intact flowering rose plants after foliar treatment", "assay_type": "in vivo", "design": "key to Bloom Stage Day 1 / Bloom Stage Day 12: 1: Early bloom; 2: Fully Open; 3: Wilted", "method": "Parade Roses® with flowers in the bud to early bloom stage were treated to the point of drip on day 1 and day 2 with an aqueous solution comprising either (1) 0.125% Triton® X-100 and 0.5% canola oil as a control treatment; or (2) 1.5 mM MDHJ, 0.125% Triton® X-100, and 0.5% canola oil. There were four plants per treatment. Approximately 10 ml of each treatment was applied to each plant, comprising approximately 3.9 μL (15 μM MDHJ). Rate of flower development of individual flowers was monitored and compared between treatments. On day 1 and day 12, individual flowers were rated according to their stage of blooming. FIG. 3 is a photographic comparison of treated and untreated plants at day 1 and day 12."}, "[2]": {"conditions": "plants treated before harvesting, vs untreated"}},
  "note": "Values joined by “and” are separate entries in the source; they are usually repeats but may differ in a detail not shown here. Identical values can stand only once.",
  "data": [
    {"smiles": "CCCCCC1C(=O)CCC1CC(=O)OC", "note": "(stereo not shown) [MDHJ, methyl dihydrojasmonate]", "values": [
      {"measurement": "Bloom Stage Day 1", "setting": "[1]; individual cut flowers, day 1, foliage sprayed 24 hours before harvesting with 5.0 mM MDHJ, 0.125% Triton X-100, 0.5% canola oil, listed as Treated", "value": "d and c and b (2×)"},
      {"measurement": "Bloom Stage Day 3", "setting": "[1]; individual cut flowers, day 3, foliage sprayed 24 hours before harvesting with 5.0 mM MDHJ, 0.125% Triton X-100, 0.5% canola oil", "value": "d"},
      {"measurement": "Ability of buds to open fully into flowers", "setting": "[1]; plants treated before harvesting buds and early flowers, vs untreated", "value": "improving the ability of the buds to open fully into flowers"},
      {"measurement": "Bent neck of stems", "setting": "[1]; [2]", "value": "prevents stems from exhibiting bent neck"},
      {"measurement": "Flower wilting", "setting": "[1]; [2]", "value": "delays flower wilting"},
      {"measurement": "Average Bloom Stage Day 1", "setting": "Parade Roses®; average of 8 flowers, day 1, scale 1 early bloom, 2 fully open, 3 wilted, 1.5 mM MDHJ formulation", "value": 1.4},
      {"measurement": "Average Bloom Stage Day 12", "setting": "Parade Roses®; average of 8 flowers, day 12, scale 1 early bloom, 2 fully open, 3 wilted, 1.5 mM MDHJ formulation", "value": 1.4},
      {"measurement": "Flower development on intact plants", "setting": "Parade Roses®; formulation containing MDHJ vs control formulation without MDHJ", "value": "prolonged flower development"},
      {"measurement": "Bloom Stage Day 1", "setting": "Parade Roses®; individual flowers on intact plants, day 1, 1.5 mM MDHJ, 0.125% Triton X-100, 0.5% canola oil applied day 1 and day 2, listed as Treatment 2", "value": "2 (3×) and 1 (5×)"},
      {"measurement": "Bloom Stage Day 12", "setting": "Parade Roses®; individual flowers on intact plants, day 12, 1.5 mM MDHJ, 0.125% Triton X-100, 0.5% canola oil applied day 1 and day 2, listed as Treatment 2", "value": "2 (3×) and 1 (5×)"}
    ]}
  ]
}
